Key:
Format in all cases: in vivo
Alopecurus myosuroides = assay: Pre-emergence herbicidal effect; conditions: scored visually after 3 weeks
Outline: (§1)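 Pre-emergence soil-surface application of compound as WP or EC in water (600 to 800 L/ha, 0.2% wetting agent) to freshly sown, soil-covered seeds in sandy loam. After 3 weeks under greenhouse conditions, percent activity rated by eye versus untreated plants, from 0% (no effect) to 100% (death).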

Viola tricolor [1] = assay: Pre-emergence herbicidal effect; conditions: scored visually after 3 weeks
Outline: as §1

Stellaria media [2] = assay: Pre-emergence herbicidal effect; conditions: scored visually after 3 weeks
Outline: as §1

Matricaria inodora [3] = assay: Pre-emergence herbicidal effect; conditions: scored visually after 3 weeks
Outline: as §1

Veronica persica [4] = assay: Pre-emergence herbicidal effect; conditions: scored visually after 3 weeks
Outline: as §1

Lolium multiflorum = assay: Pre-emergence herbicidal effect; conditions: scored visually after 3 weeks
Outline: as §1

Cyperus esculentus = assay: Pre-emergence herbicidal effect; conditions: Dosage 320 g/ha, scored visually after 3 weeks
Outline: as §1

Setaria viridis = assay: Pre-emergence herbicidal effect; conditions: scored visually after 3 weeks
Outline: as §1

Amaranthus retroflexus [5] = assay: Pre-emergence herbicidal effect; conditions: scored visually after 3 weeks
Outline: as §1

Polygonum convolvulus = assay: Pre-emergence herbicidal effect; conditions: Dosage 320 g/ha, scored visually after 3 weeks
Outline: as §1

Echinochloa crus-galli = assay: Pre-emergence herbicidal effect; conditions: scored visually after 3 weeks
Outline: as §1

Viola tricolor [6] = assay: Post-emergence herbicidal effect; conditions: assessed visually after about 3 weeks vs untreated controls
Outline: (§2)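 Herbicidal effect was rated visually roughly 3 weeks after foliar treatment, as % versus untreated plants, with 0% meaning the same as controls and 100% meaning dead. Plants were treated at the one-leaf stage in the greenhouse with aqueous WP or EC sprays at 600–800 L/ha containing 0.2% wetter.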

Ipomoea purpurea = assay: Post-emergence herbicidal effect; conditions: 320 g/ha, assessed visually after about 3 weeks vs untreated controls
Outline: as §2

Stellaria media [7] = assay: Post-emergence herbicidal effect; conditions: assessed visually after about 3 weeks vs untreated controls
Outline: as §2

Matricaria inodora [8] = assay: Post-emergence herbicidal effect; conditions: 320 g/ha, assessed visually after about 3 weeks vs untreated controls
Outline: as §2

Veronica persica [9] = assay: Post-emergence herbicidal effect; conditions: assessed visually after about 3 weeks vs untreated controls
Outline: as §2

Amaranthus retroflexus [10] = assay: Post-emergence herbicidal effect; conditions: assessed visually after about 3 weeks vs untreated controls
Outline: as §2

## N#Cc1cc2c(s1)C(Nc1ncc(C(F)(F)F)c(N)n1)CCC2 (racemic) [compound 285]
Alopecurus myosuroides; Dosage 80 g/ha
  ALOMY pre-emergence efficacy (herbicidal activity): 50%
Alopecurus myosuroides; Dosage 320 g/ha
  ALOMY pre-emergence efficacy (herbicidal activity): 60%
Viola tricolor [1]; Dosage 80 g/ha
  VIOTR pre-emergence efficacy (herbicidal activity): 100%
Viola tricolor [1]; Dosage 320 g/ha
  VIOTR pre-emergence efficacy (herbicidal activity): 100%
Stellaria media [2]; Dosage 80 g/ha
  STEME pre-emergence efficacy (herbicidal activity): 100%
Stellaria media [2]; Dosage 320 g/ha
  STEME pre-emergence efficacy (herbicidal activity): 100%
Matricaria inodora [3]; Dosage 80 g/ha
  MATIN pre-emergence efficacy (herbicidal activity): 100%
Matricaria inodora [3]; Dosage 320 g/ha
  MATIN pre-emergence efficacy (herbicidal activity): 100%
Veronica persica [4]; Dosage 80 g/ha
  VERPE pre-emergence efficacy (herbicidal activity): 100%
Veronica persica [4]; Dosage 320 g/ha
  VERPE pre-emergence efficacy (herbicidal activity): 100%
Lolium multiflorum; Dosage 80 g/ha
  LOLMU pre-emergence efficacy (herbicidal activity): 80%
Lolium multiflorum; Dosage 320 g/ha
  LOLMU pre-emergence efficacy (herbicidal activity): 90%
Cyperus esculentus
  CYPES pre-emergence efficacy (herbicidal activity): 50%
Setaria viridis; Dosage 80 g/ha
  SETVI pre-emergence efficacy (herbicidal activity): 70%
Setaria viridis; Dosage 320 g/ha
  SETVI pre-emergence efficacy (herbicidal activity): 100%
Amaranthus retroflexus [5]; Dosage 80 g/ha
  AMARE pre-emergence efficacy (herbicidal activity): 100%
Amaranthus retroflexus [5]; Dosage 320 g/ha
  AMARE pre-emergence efficacy (herbicidal activity): 100%
Polygonum convolvulus
  POLCO pre-emergence efficacy (herbicidal activity): 100%
Echinochloa crus-galli; Dosage 80 g/ha
  ECHCG pre-emergence efficacy (herbicidal activity): 60%
Echinochloa crus-galli; Dosage 320 g/ha
  ECHCG pre-emergence efficacy (herbicidal activity): 100%
Viola tricolor [6]; 80 g/ha
  post-emergence efficacy VIOTR: 80%
Viola tricolor [6]; 320 g/ha
  post-emergence efficacy VIOTR: 100%
Ipomoea purpurea
  post-emergence efficacy PHBPU: 60%
Stellaria media [7]; 80 g/ha
  post-emergence efficacy STEME: 90%
Stellaria media [7]; 320 g/ha
  post-emergence efficacy STEME: 100%
Matricaria inodora [8]
  post-emergence efficacy MATIN: 80%
Veronica persica [9]; 80 g/ha
  post-emergence efficacy VERPE: 60%
Veronica persica [9]; 320 g/ha
  post-emergence efficacy VERPE: 80%
Amaranthus retroflexus [10]; 80 g/ha
  post-emergence efficacy AMARE: 100%
Amaranthus retroflexus [10]; 320 g/ha
  post-emergence efficacy AMARE: 100%

From US10251395B2, “Substituted furano-/thienocycloalkylamino-2-pyrimidine derivatives and use thereof for controlling undesired plant growth” (Bayer CropScience Aktiengesellschaft, priority 2015, dated 2019)
